Assays:
[1] = biological target: ligand binding domain of human FXR (Homo sapiens (Human), UniProt Q96RI1); assay: FXR ligand binding assay (LanthaScreen TR-FRET, SRC2-2 peptide recruitment); details: for pEC50: -log EC50, concentration required to produce 50% activation; for Emax: extent of activation relative to GW4064, read-out: % Efficacy
[2] = biological target: human Farnesoid X receptor ligand-binding domain/Gal4 DNA binding domain chimera (Homo sapiens (Human), UniProt Q96RI1); assay: Cell-based assay of FXR activation (FXR-UAS-bla HEK 293T beta-lactamase reporter); details: cellular FXR beta-lactamase reporter assay; for Emax: HEK-293T, extent of activation relative to GW4064, read-out: % Efficacy; for EC50: FXR-UAS-bla HEK 293T cells, 16 h, pEC50 = -log EC50
Chain of human Farnesoid X receptor ligand-binding domain/Gal4 DNA binding domain chimera (Q96RI1 262-486, change not shown): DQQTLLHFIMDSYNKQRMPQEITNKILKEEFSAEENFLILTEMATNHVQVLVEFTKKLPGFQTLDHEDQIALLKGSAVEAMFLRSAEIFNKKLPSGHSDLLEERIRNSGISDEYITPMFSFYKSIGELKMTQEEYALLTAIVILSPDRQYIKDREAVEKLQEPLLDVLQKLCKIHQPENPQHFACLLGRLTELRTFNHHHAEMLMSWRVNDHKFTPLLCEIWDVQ
Chain of human Farnesoid X receptor ligand-binding domain/Gal4 DNA binding domain chimera (P04386 1-147 partner): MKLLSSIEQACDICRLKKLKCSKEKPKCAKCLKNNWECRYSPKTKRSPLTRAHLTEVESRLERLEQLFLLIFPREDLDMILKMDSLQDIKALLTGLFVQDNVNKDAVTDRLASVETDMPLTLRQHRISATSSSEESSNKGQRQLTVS
Method in brief: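 Readout is cleavage of the CCF4 FRET substrate (409 nm excitation, blue 447 nm signal) by beta-lactamase, expressed under UAS control after a Gal4–human FXR LBD chimera is activated in HEK 293T cells. Compounds were added as 3-fold dilutions for 16 h at 37 °C in 2% charcoal-stripped FBS medium. Curves were fit to a 3-parameter logistic equation to give pEC50, with % activation relative to GW4064.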

Chain of ligand binding domain of human FXR (Q96RI1 262-486): as the sequence (Q96RI1 262-486, change not shown) above

Structure (SMILES)	pEC50 [1]	Emax [1]	Emax [2]	EC50 [2]
O=C(O)c1cc(C2CC3(CCOCC3)C2)c2nc(N3C[C@@H]4C[C@H]3C[C@H]4OCc3c(-c4c(Cl)cccc4Cl)noc3C3CC3)sc2c1 [Compound I-257, 2-[(1S,4S,5R)-5-{[5-cyclopropyl-3-(2,6-dichlorophenyl)-1,2-oxazol-4-yl]methoxy}-2-azabicyclo[2.2.1]heptan-2-yl]-4-{7-oxaspiro[3.5]nonan-2-yl}-1,3-benzothiazole-6-carboxylic Acid]	8.6	148%	108%	0.1 nM
O=C(O)c1cc(C2CCCOCC2)c2nc(N3C[C@@H]4C[C@H]3C[C@H]4OCc3c(-c4c(Cl)cccc4Cl)noc3C3CC3)sc2c1 (stereo partly drawn) [Compound I-258, 2-[(1S,4S,5R)-5-{[5-cyclopropyl-3-(2,6-dichlorophenyl)-1,2-oxazol-4-yl]methoxy}-2-azabicyclo[2.2.1]heptan-2-yl]-4-(oxepan-4-yl)-1,3-benzothiazole-6-carboxylic Acid]	8.6	146%	106%	0.126 nM
O=C(O)c1cc(OC2CC2)c2nc(N3C[C@@H]4C[C@H]3C[C@H]4OCc3c(-c4c(Cl)cccc4Cl)noc3C3CC3)sc2c1 [Compound I-259, 4-cyclopropoxy-2-[(1S,4S,5R)-5-{[5-cyclopropyl-3-(2,6-dichlorophenyl)-1,2-oxazol-4-yl]methoxy}-2-azabicyclo[2.2.1]heptan-2-yl]-1,3-benzothiazole-6-carboxylic Acid]	8.5	124%	114%	0.1 nM
O=C(O)c1cc(O[C@H]2CCOC2)c2nc(N3C[C@@H]4C[C@H]3C[C@H]4OCc3c(-c4c(Cl)cccc4Cl)noc3C3CC3)sc2c1 [Compound I-260, 2-[(1S,4S,5R)-5-{[5-cyclopropyl-3-(2,6-dichlorophenyl)-1,2-oxazol-4-yl]methoxy}-2-azabicyclo[2.2.1]heptan-2-yl]-4-[(3S)-oxolan-3-yloxy]-1,3-benzothiazole-6-carboxylic Acid]	8.8	148%	103%	0.398 nM
O=C(O)c1cc(O[C@@H]2CCOC2)c2nc(N3C[C@@H]4C[C@H]3C[C@H]4OCc3c(-c4c(Cl)cccc4Cl)noc3C3CC3)sc2c1 [Compound I-261, 2-[(1S,4S,5R)-5-{[5-cyclopropyl-3-(2,6-dichlorophenyl)-1,2-oxazol-4-yl]methoxy}-2-azabicyclo[2.2.1]heptan-2-yl]-4-[(3R)-oxolan-3-yloxy]-1,3-benzothiazole-6-carboxylic Acid]	8.6	161%	110%	0.398 nM
Cc1cc(C(=O)O)cc2sc(N3C[C@@H]4C[C@H]3C[C@H]4OCc3c(-c4c(F)cccc4Cl)noc3C3CC3)nc12 [Compound I-262, 2-[(1S,4S,5R)-5-{[3-(2-chloro-6-fluorophenyl)-5-cyclopropyl-1,2-oxazol-4-yl]methoxy}-2-azabicyclo[2.2.1]heptan-2-yl]-4-methyl-1,3-benzothiazole-6-carboxylic Acid]	8.6	144%	114%	2 nM
O=C(O)c1cc(OC2CC2)c2nc(N3C[C@@H]4C[C@H]3C[C@H]4OCc3c(-c4c(F)cccc4Cl)noc3C3CC3)sc2c1 [Compound I-263, 2-((1S,4S,5R)-5-((3-(2-chloro-6-fluorophenyl)-5-cyclopropylisoxazol-4-yl)methoxy)-2-azabicyclo[2.2.1]heptan-2-yl)-4-cyclopropoxybenzo[d]thiazole-6-carboxylic acid]	8.6	150%	109%	0.1 nM
O=C(O)c1cc(C2CCOCC2)c2nc(N3C[C@@H]4C[C@H]3C[C@H]4OCc3c(-c4c(F)cccc4Cl)noc3C3CC3)sc2c1 [Compound I-264, 2-((1S,4S,5R)-5-((3-(2-chloro-6-fluorophenyl)-5-cyclopropylisoxazol-4-yl)methoxy)-2-azabicyclo[2.2.1]heptan-2-yl)-4-(tetrahydro-2H-pyran-4-yl)benzo[d]thiazole-6-carboxylic acid]	8.5	142%	105%	0.631 nM
O=C(O)c1cc([C@H]2CCOC2)c2nc(N3C[C@@H]4C[C@H]3C[C@H]4OCc3c(-c4c(F)cccc4Cl)noc3C3CC3)sc2c1 [Compound I-265]	8.4	146%	110%	0.501 nM
O=C(O)c1cc([C@@H]2CCOC2)c2nc(N3C[C@@H]4C[C@H]3C[C@H]4OCc3c(-c4c(F)cccc4Cl)noc3C3CC3)sc2c1 [Compound I-266, 2-((1S,4S,5R)-5-((3-(2-chloro-6-fluorophenyl)-5-cyclopropylisoxazol-4-yl)methoxy)-2-azabicyclo[2.2.1]heptan-2-yl)-4-((S)-tetrahydrofuran-3-yl)benzo[d]thiazole-6-carboxylic Acid]	8.6	139%	105%	0.251 nM
O=C(O)c1cc(O[C@H]2CCOC2)c2nc(N3C[C@@H]4C[C@H]3C[C@H]4OCc3c(-c4c(F)cccc4Cl)noc3C3CC3)sc2c1 [Compound I-267, 2-((1S,4S,5R)-5-((3-(2-chloro-6-fluorophenyl)-5-cyclopropylisoxazol-4-yl)methoxy)-2-azabicyclo[2.2.1]heptan-2-yl)-4-(((S)-tetrahydrofuran-3-yl)oxy)benzo[d]thiazole-6-carboxylic acid]	8.6	146%	102%	1 nM
O=C(O)c1cc(O[C@@H]2CCOC2)c2nc(N3C[C@@H]4C[C@H]3C[C@H]4OCc3c(-c4c(F)cccc4Cl)noc3C3CC3)sc2c1 [Compound I-268, 2-((1S,4S,5R)-5-((3-(2-chloro-6-fluorophenyl)-5-cyclopropylisoxazol-4-yl)methoxy)-2-azabicyclo[2.2.1]heptan-2-yl)-4-(((R)-tetrahydrofuran-3-yl)oxy)benzo[d]thiazole-6-carboxylic acid]	8.6	146%	102%	1.58 nM
Cc1cccc(Cl)c1-c1noc(C2CC2)c1CO[C@@H]1C[C@@H]2C[C@H]1CN2c1nc2c(C)cc(C(=O)O)cc2s1 [Compound I-269]	8.5	137%	106%	0.631 nM
Cc1cccc(Cl)c1-c1noc(C2CC2)c1CO[C@@H]1C[C@@H]2C[C@H]1CN2c1nc2c(OC3CC3)cc(C(=O)O)cc2s1 [Compound I-270, 2-((1S,4S,5R)-5-((3-(2-chloro-6-methylphenyl)-5-cyclopropylisoxazol-4-yl)methoxy)-2-azabicyclo[2.2.1]heptan-2-yl)-4-cyclopropoxybenzo[d]thiazole-6-carboxylic acid]	8.7	150%	106%	0.1 nM
Cc1cccc(Cl)c1-c1noc(C2CC2)c1CO[C@@H]1C[C@@H]2C[C@H]1CN2c1nc2c(C3CCOCC3)cc(C(=O)O)cc2s1 [Compound I-271, 2-((1S,4S,5R)-5-((3-(2-chloro-6-methylphenyl)-5-cyclopropylisoxazol-4-yl)methoxy)-2-azabicyclo[2.2.1]heptan-2-yl)-4-(tetrahydro-2H-pyran-4-yl)benzo[d]thiazole-6-carboxylic acid]	8.6	132%	108%	0.398 nM
Cc1cccc(Cl)c1-c1noc(C2CC2)c1CO[C@@H]1C[C@@H]2C[C@H]1CN2c1nc2c([C@H]3CCOC3)cc(C(=O)O)cc2s1 [Compound I-272, 2-((1S,4S,5R)-5-((3-(2-chloro-6-methylphenyl)-5-cyclopropylisoxazol-4-yl)methoxy)-2-azabicyclo[2.2.1]heptan-2-yl)-4-((R)-tetrahydrofuran-3-yl)benzo[d]thiazole-6-carboxylic Acid]	8.4	132%	105%	0.501 nM
Cc1cccc(Cl)c1-c1noc(C2CC2)c1CO[C@@H]1C[C@@H]2C[C@H]1CN2c1nc2c([C@@H]3CCOC3)cc(C(=O)O)cc2s1 [Compound I-273, 2-((1S,4S,5R)-5-((3-(2-chloro-6-methylphenyl)-5-cyclopropylisoxazol-4-yl)methoxy)-2-azabicyclo[2.2.1]heptan-2-yl)-4-((S)-tetrahydrofuran-3-yl)benzo[d]thiazole-6-carboxylic Acid]	8.4	132%	106%	0.398 nM
Cc1cccc(Cl)c1-c1noc(C2CC2)c1CO[C@@H]1C[C@@H]2C[C@H]1CN2c1nc2c(O[C@H]3CCOC3)cc(C(=O)O)cc2s1 [Compound I-274, 2-((1S,4S,5R)-5-((3-(2-chloro-6-methylphenyl)-5-cyclopropylisoxazol-4-yl)methoxy)-2-azabicyclo[2.2.1]heptan-2-yl)-4-(((S)-tetrahydrofuran-3-yl)oxy)benzo[d]thiazole-6-carboxylic acid]	8.8	150%	100%	0.631 nM
Cc1cccc(Cl)c1-c1noc(C2CC2)c1CO[C@@H]1C[C@@H]2C[C@H]1CN2c1nc2c(O[C@@H]3CCOC3)cc(C(=O)O)cc2s1 [Compound I-275, 2-((1S,4S,5R)-5-((3-(2-chloro-6-methylphenyl)-5-cyclopropylisoxazol-4-yl)methoxy)-2-azabicyclo[2.2.1]heptan-2-yl)-4-(((R)-tetrahydrofuran-3-yl)oxy)benzo[d]thiazole-6-carboxylic acid]	8.8	140%	106%	0.631 nM

— patent publication US10793568B2, “Hormone receptor modulators for treating metabolic conditions and disorders” (ARDELYX, INC., priority 2016, dated 2020)
